# Test results from PMC4598760 (Biomolecules, 2015).
# Where two headings read alike, the source gives them in different places.
# Columns and labels:
# [1] = test system: influenza virus A/Mem71 (H3N1); conditions: for Kd: read-out: K*d (apparent)
# [2] = test system: hemagglutinin (HA) on immobilized influenza virus A/Mem71 (H3N1); format: binding, influenza A virus A/Memphis/1971
# [3] = test system: A/Udorn/307/1972 (A/Udorn72, H3N2)
# [4] = test system: A/Philippines/2/82/X-79 (A/Philips, H3N2)
compound,measurement,setting,value
Neu5Acα2-3Galβ1-4Glcβ-Biotin [OS-11],K*off (apparent),[1],4.1e-06 s⁻¹
same,K*on (apparent),[1],7200 M⁻¹ s⁻¹
same,Kd,[1],0.58 nM
Neu5Acα2-6Galβ1-4Glcβ-Biotin [OS-21],K*off (apparent),[1],<3e-06 s⁻¹
same,K*on (apparent),[1],7000 M⁻¹ s⁻¹
same,Kd,[1],< 0.43 nM
"CC(=O)N[C@H]1[C@H]([C@H](O)[C@H](O)CO)O[C@@](OC[C@H]2O[C@@H](O[C@H]3[C@H](O)[C@@H](O)C(O)O[C@@H]3CO)[C@H](O)[C@@H](O)[C@H]2O)(C(=O)O)C[C@@H]1O (stereo partly drawn) [α2-6 sialyllactose (OS-21), α2-6-sialyllactose]",Kd,[2],47.6 mM
same,Koff,[2],0.128 s⁻¹
same,Kd,"[2]; monovalent, 288 K",6.8 mM
same,Kd,"[2]; monovalent, 293 K",11.2 mM
same,Kd,"[2]; monovalent, 296 K",23.8 mM
Kdnα2-6Galβ1-4Glcβ-Biotin [OS-19],virus binding to surface-bound glycan (in words),[1],does not bind
"CC(=O)N[C@H]1[C@H]([C@H](O)[C@H](O)CO)O[C@@](O[C@H]2[C@@H](O)[C@@H](CO)O[C@@H](O[C@H]3[C@H](O)[C@@H](O)C(O)O[C@@H]3CO)[C@@H]2O)(C(=O)O)C[C@@H]1O (stereo partly drawn) [α2-3 sialyllactose (OS-11), α2-3-sialyllactose]",Kd,[2],26.3 mM
same,Koff,[2],0.0736 s⁻¹
same,Kd,"[2]; monovalent, 288 K",2.6 mM
same,Kd,"[2]; monovalent, 293 K",6.4 mM
same,Kd,"[2]; monovalent, 296 K",18.8 mM
Neu5Gcα2-6Galβ1-4Glcβ-Biotin [OS-20],virus binding to surface-bound glycan (in words),[3],binds
same,virus binding to surface-bound glycan (in words),[4],do not
Neu5Acα2-6GalNAcα-Biotin [OS-18],virus binding to surface-bound glycan (in words),[1],binds
